According to US6455522B1, “Cyclic sulfonamide derivatives as metalloproteinase inhibitors” (Bristol-Myers Squibb Pharma Company, priority 1998, dated 2002):

Test system: cartilage degradation
Assay: Acute Cartilage Degradation Rat Model
Type: in vivo
Settings: rats, after compound administration
Description: A novel in vivo model of acute cartilage degradation in rats has been characterized as a method to determine the proteoglycan content in the synovial fluid after the induction of cartilage degradation.

Question: How did the “ability to inhibit the demonstration of cartilage degradation, as measured by increased proteoglycan content in the synovial fluid” value turn out when `COc1ccc2c(c1)c(CC(=O)O)c(C)n2C(=O)c1ccc(Cl)cc1` [Indomethacin] was run?
Answer: inactive
